Values after ≈ are worked out from the molar mass of the structure shown. Like-named read-outs stand apart in the source and are kept apart here. Values belong to the molecule of their own block, whether it stands above or below them.
Columns and labels:
physchem = assay type: physicochemical
Protocol: To compare the relative stability of the new agents vs. artesunic acid, stability studies of compound 8d and compound 1 were conducted in 2.5% K2 CO3 /D2 O solution at room temperature and were monitored by PMR. [drawing 8]
(§1) To a 5 mm NMR tube containing 10 mg of sample was added 0.5 mL of 2.5% K2 CO3 /D2 O solution. The initial spectrum of the solution was taken within 5 minutes, and again at intervals thereafter. The extent of hydrolysis was estimated by the following equation:
(§2) % Decomposition=(B/2A+B)×100
(§3) where A=integration of H-10 (5.80 ppm, d, J=10.8 Hz, 1H) and H-12 (5.71 ppm, s, 1H) of artesunate; B=integration of the singlet at 2.42 ppm for the potassium succinate formed. With time, the intensity of potassium succinate (2.42 ppm) signal increases, while that of H-10 and H-12 of artesunate decreases. The stability study of compound 1 in 5% NaHCO3 /D2 O was also carried out by the same procedure.

[1] = background, cited from earlier work
Plasmodium berghei = experiment: In vivo suppressive blood schizonticidal and curative activity in infected mice, 60 days survival; parameters: species or system Plasmodium berghei (in mice); conditions: for Number active (A): active = survival time greater than twice control mice (12 to 14 days); for Number of Cures: cured = surviving 60 days
Protocol: The suppressive blood schizonticidal and curative activities of artemisinin, artelinic acid and artesunic acid, were measured in a test where mice were infected with 5.98×10^5 Plasmodium berghei parasitized cells intraperitoneally on day zero. […] The dose levels of compounds given were 640, 160, and 40 mg/kg/day. Blood films were taken on days 6, 13, and 20. Blood schizonticidal activity was determined by monitoring blood films for the appearance of parasites and for extended survival times compared to infected untreated controls. Mice surviving 60 days were considered cured. The infected untreated control mice (negative controls) died on either day 6 or 7. Compounds were considered active when the survival time of the treated mice was greater than twice the control mice, i.e., 12 to 14 days.

[2] = Stability in 5% NaHCO3/D2O at room temperature, monitored by PMR; assay type: physicochemical
Protocol: as §1, §2, §3

[3] = test system: Plasmodium falciparum D-6 (Sierra Leone clone) and W-2 (Indochina clone); experiment: In vitro antimalarial activity against both clones, summarised in words; assay type: cell-based; conditions: D-6 and W-2 clones
Protocol: (§4) The former clone is a strain that is resistant to mefloquine and the latter, to chloroquine, pyrimethamine, sulfadoxine, and quinine.
(§5) In vitro assays were conducted using a modification of the semiautomated microdilution technique of Desjardins et al., Antimicrob. Agents Chemoether., 1979, Volume 16, page 710 and Milhous et al., Antimicrob. Agents Chemother., 1985, Volume 27, page 525. Two P. falciparum malaria parasite clones, designated as Indochina (W-2) and Sierra Leone (D-6), were utilized in susceptibility testing. They were derived by direct visualization and micromanipulation from patient isolates obtained by the Centers for Disease Control, Atlanta, GA in 1980 and 1982, respectively. The patients had acquired infections either in Vietnam or Sierra Leone. The Indochina clone is resistant to the antimalarials chloroquine, sulfadoxine, pyrimethamine, and quinine, whereas the Sierra Leone, is resistant to mefloquine but susceptible to chloroquine, quinine, sulfadoxine, and pyrimethamine. Test compounds were initially dissolved in DMSO and 70% ethanol and diluted in RPMI 1640 culture medium with 10% human plasma to 400 fold. Drugs were subsequently further diluted using the Cetus Pro/Pette (Perkin-Elmer Corp., Norwalk, CT) over a range of 1.56-100×10^-9 molar. Parasite inocula (at 0.5% parasitemia and a 1% hematocrit) were incubated for 24 hours and added to equimolar concentrations of each test compound prior to the addition of ^3 H-hypoxanthine. After a further incubation of 18 hours, particulate matter was harvested from each microtiter well using an automated cell harvester (Skatron, Inc., Sterling, VA). Uptake of ^3 H-hypoxanthine was measured using a scintillation spectrophotometer (Model LS3801, Beckman Instruments, Irvine, CA). Concentration-response data were analyzed by nonlinear regression and the IC50 's (50% inhibitory concentrations) for each compound were calculated.

malaria [4] = conditions: background; cited from earlier work
cerebral malaria = conditions: background; cited from earlier work
malaria [5] = conditions: background, reported; cited from earlier work
[6] = test system: P. falciparum Sierra Leone (D-6) clone; experiment: In vitro antimalarial susceptibility, 3H-hypoxanthine uptake, Sierra Leone (D-6) clone; assay type: cell-based, Plasmodium falciparum; conditions: for IC50: Plasmodium falciparum
Protocol: as §4
as §5, with “CA).” for “CA). Concentration-response data were analyzed by nonlinear regression and the IC50 's (50% inhibitory concentrations) for each compound were calculated.”

[7] = test system: P. falciparum Indochina (W-2) clone; experiment: In vitro antimalarial susceptibility, 3H-hypoxanthine uptake, Indochina (W-2) clone; assay type: cell-based, Plasmodium falciparum; conditions: for IC50: Plasmodium falciparum
Protocol: as §4
as §5, with “CA).” for “CA). Concentration-response data were analyzed by nonlinear regression and the IC50 's (50% inhibitory concentrations) for each compound were calculated.”

[8] = 40 mg/kg/day SC x 3 days, 5% NaHCO3
[9] = 160 mg/kg/day SC x 3 days, 5% NaHCO3
[10] = 640 mg/kg/day SC x 3 days, 5% NaHCO3
[11] = 40 mg/kg/day SC x 3 days, peanut oil

- In vitro antimalarial activity IC50, Sierra Leone (D-6) [6]: 53.79 ng/mL
- IC50 [7]: 26.2 ng/mL
SMILES: CC1CCC2C(C)C(OCC(=O)O)OC3OC4(C)CCC1C32OO4 (stereo not shown) [Compound 7a, Potassium 2-(10-Dihydroartemisininoxy)acetate]

- In vitro antimalarial activity IC50, Sierra Leone (D-6) [6]: 85.02 ng/mL
- In vitro antimalarial activity IC50, Indochina Clone (W-2) [7]: 23.28 ng/mL
SMILES: CC1CCC2C(C)C(OCCC(=O)O)OC3OC4(C)CCC1C32OO4 (stereo not shown) [Compound 7b, Potassium 3-(10-Dihydroartemisininoxy)propionate]

- In vitro antimalarial activity IC50, Sierra Leone (D-6) [6]: 75.52 ng/mL
- IC50 [7]: 10.5 ng/mL
SMILES: CC1CCC2C(C)C(OCCCC(=O)O)OC3OC4(C)CCC1C32OO4 (stereo not shown) [Compound 7c, Potassium 4-(10-Dihydroartemisininoxy)butyrate]

- In vitro antimalarial activity IC50, Sierra Leone (D-6) [6]: 51.74 ng/mL
- IC50 [7]: 35.6 ng/mL (≈ 100 nM)
SMILES: CC1CCC2C(C)C(OCCC(=O)O)OC3OC4(C)CCC1C32OO4 (stereo not shown) [Compound 8b, 3-(10-Dihydroartemisininoxy)propionic Acid]

- In vitro antimalarial activity IC50, Sierra Leone (D-6) [6]: 17.90 ng/mL
- In vitro antimalarial activity IC50, Indochina Clone (W-2) [7]: 8.04 ng/mL
SMILES: CC1CCC2C(C)C(OCCCC(=O)O)OC3OC4(C)CCC1C32OO4 (stereo not shown) [Compound 8c, 4-(10-Dihydroartemisininoxy)butyric Acid]

- detectable change (physchem; 2.5% K2CO3/D2O, room temperature, after 35 days): no detectable change
- degraded at 1.5 h (physchem; 2.5% k2co3/d2o): 0%
- degraded at 24 h (physchem; 2.5% k2co3/d2o): 0%
- degraded at 48 h (physchem; 2.5% k2co3/d2o): 0%
- degraded at 72 h (physchem; 2.5% k2co3/d2o): 0%
- degraded at 96 h (physchem; 2.5% k2co3/d2o): 0%
- degraded at 1608 h (physchem; 2.5% k2co3/d2o): < 3%
- In vitro antimalarial activity IC50, Sierra Leone (D-6) [6]: 4.07 ng/mL
- In vitro antimalarial activity IC50, Indochina Clone (W-2) [7]: 1.38 ng/mL
SMILES: CC1CCC2C(C)C(OCc3ccc(C(=O)O)cc3)OC3OC4(C)CCC1C32OO4 (stereo not shown) [Compound 8d, Para-(10-Dihydroartemisininoxy)methylbenzoic Acid]
- Number of Cures (Plasmodium berghei; [8]): 5/5
- Number of Cures (Plasmodium berghei; [9]): 5/5
- Number of Cures (Plasmodium berghei; [10]): 5/5

More lines, now with the values behind:

SMILES: C[C@H]1[C@H](OC(=O)CCC(=O)O)O[C@@H]2O[C@@]3(C)CC[C@H]4[C@H](C)CC[C@@H]1[C@@]24OO3 [Compound 1, artesunic acid]
- half-life of hydrolysis (estimated) (physchem; 2.5% K2CO3 solution): < 24 h
- degraded at 1.5 h (physchem; 2.5% k2co3/d2o): 20%
- degraded at 24 h (physchem; 2.5% k2co3/d2o): 60%
- degraded at 48 h (physchem; 2.5% k2co3/d2o): 75%
- degraded at 72 h (physchem; 2.5% k2co3/d2o): 91%
- degraded at 96 h (physchem; 2.5% k2co3/d2o): 98%
- water solubility ([1]; listed as compound 1): water-soluble
- Number active (A) (Plasmodium berghei; [8]): 2/5
- Number of Cures (Plasmodium berghei; [8]): 0/5
- Number active (A) (Plasmodium berghei; [9]): 3/5
- Number of Cures (Plasmodium berghei; [9]): 0/5
- Number of Cures (Plasmodium berghei; [10]): 5/5
- half-life of hydrolysis (estimated) ([2]; 5% NaHCO3): about 4.5 days
- rate of hydrolysis compared with 2.5% K2CO3/D2O ([2]; 5% NaHCO3/D2O vs 2.5% K2CO3/D2O): slower
- degraded at 4 h ([2]; 5% NaHCO3/D2O, room temperature, 4 hours, read-out: % Hydrolysis): < 5%
- degraded at 48 h ([2]; 5% NaHCO3/D2O, room temperature, 2 days, read-out: % Hydrolysis): 22%
- degraded at 72 h ([2]; 5% NaHCO3/D2O, room temperature, 3 days, read-out: % Hydrolysis): 33%
- degraded at 96 h ([2]; 5% NaHCO3/D2O, room temperature, 4 days, read-out: % Hydrolysis): 45%
- degraded at 192 h ([2]; 5% NaHCO3/D2O, room temperature, 8 days, read-out: % Hydrolysis): 75%
- degraded at 216 h ([2]; 5% NaHCO3/D2O, room temperature, 9 days, read-out: % Hydrolysis): 82%

SMILES: C[C@@H]1CC[C@H]2[C@@H](C)C(O)O[C@@H]3O[C@@]4(C)CC[C@@H]1[C@]32OO4 (stereo partly shown) [Compound 2, Dihydroartemisinin]
- cross-resistance to mefloquine, chloroquine, pyrimethamine, sulfadoxine, quinine [3]: not cross-resistant
- cross-resistance to chloroquine (malaria [4]): Neither artemisinin nor dihydroartemisinin exhibit cross-resistance to chloroquine
- efficacy against cerebral malaria in man (cerebral malaria): proven efficacious against cerebral malaria in man
- therapeutic activity compared with its parent compound artemisinin (malaria [5]): more therapeutically active than its parent compound

SMILES: C[C@@H]1CC[C@H]2[C@@H](C)C(=O)O[C@@H]3O[C@@]4(C)CC[C@@H]1[C@]32OO4 [Compound 3, Artemisinin]
- cross-resistance to mefloquine, chloroquine, pyrimethamine, sulfadoxine, quinine [3]: not cross-resistant
- cross-resistance to chloroquine (malaria [4]): Neither artemisinin nor dihydroartemisinin exhibit cross-resistance to chloroquine
- Blood films positive (Plasmodium berghei; 40 mg/kg, peanut oil, SC): 3 of 5
- Number active (A) (Plasmodium berghei; [11]): 3/5
- Number of Cures (Plasmodium berghei; [11]): 2/5
- Blood films (Plasmodium berghei; 160 mg/kg, peanut oil, SC): negative
- Number of Cures (Plasmodium berghei; 160 mg/kg/day SC x 3 days, peanut oil): 5/5
- Blood films (Plasmodium berghei; 640 mg/kg, peanut oil, SC): negative
- Number of Cures (Plasmodium berghei; 640 mg/kg/day SC x 3 days, peanut oil): 5/5
- efficacy against cerebral malaria in man (cerebral malaria): proven efficacious against cerebral malaria in man
- IC50 [6]: 2.93 ng/mL (≈ 10.4 nM)
- IC50 [7]: 0.66 ng/mL (≈ 2.34 nM)

SMILES: CCOC(=O)COC1OC2OC3(C)CCC4C(C)CCC(C1C)C24OO3 (stereo not shown) [Compound 5a, Ethyl 2-(10-Dihydroartemisininoxy)acetate]
- IC50 [6]: 0.6 ng/mL (≈ 1.62 nM)
- IC50 [7]: 0.26 ng/mL (≈ 0.702 nM)

SMILES: COC(=O)CCOC1OC2OC3(C)CCC4C(C)CCC(C1C)C24OO3 (stereo not shown) [Compound 5b, Methyl 3-(10-Dihydroartemisininoxy)propionate]
- IC50 [6]: 1.84 ng/mL (≈ 4.97 nM)
- IC50 [7]: 0.64 ng/mL (≈ 1.73 nM)

SMILES: COC(=O)CCCOC1OC2OC3(C)CCC4C(C)CCC(C1C)C24OO3 (stereo not shown) [Compound 5c, Methyl 4-(10-Dihydroartemisininoxy)butyrate]
- IC50 [6]: 3.06 ng/mL (≈ 7.96 nM)
- IC50 [7]: 0.95 ng/mL (≈ 2.47 nM)

SMILES: COC(=O)c1ccc(COC2OC3OC4(C)CCC5C(C)CCC(C2C)C35OO4)cc1 (stereo not shown) [Compound 5d, Methyl p-(10-Dihydroartemisininoxy)methylbenzoate]
- IC50 [6]: 0.77 ng/mL (≈ 1.78 nM)
- IC50 [7]: 0.37 ng/mL (≈ 0.855 nM)

SMILES: C[C@H]1[C@H](OC(=O)CCC(=O)O)O[C@@H]2O[C@@]3(C)CC[C@H]4[C@H](C)CC[C@@H]1[C@@]24OO3 [Sodium artesunate]
- water solubility [1]: water soluble

From patent US4791135A (priority 1987, dated 1988)
